Earlier results in patent US9382233B2, “Forms of vilazodone and processes for the preparation thereof” (APOTEX INC., priority 2012, dated 2016).

Conditions: benzyl alcohol and its equivalents (benzoic acid, benzoate salts, benzaldehyde, benzyl acetate and benzyl benzoate); World Health Organization (JECFA, 2001)

OCc1ccccc1 [benzyl alcohol]
acceptable daily intake (ADI): 5 mg/kg
